# Assay results taken from paper PMC8297402, “Trifluoromethyl-substituted 3,5-bis(arylidene)-4-piperidones as potential anti-hepatoma and anti-inflammation agents by inhibiting NF-кB activation” (Journal of Enzyme Inhibition and Medicinal Chemistry, 2021).
# Test system: HepG2 cells
# Assay: Apoptosis assay, Annexin V-FITC/PI flow cytometry
# Format: cell-based, Human
# Settings: 1.0 μM, 24 h
# Description: HepG2 cells were selected and plated at a density of approximately 2 × 10^5 cells/well in a 12-well plate. After treatment with BAP 16 (1.0, 2.0, and 4.0 μM) and DMSO for 24 h, cells were harvested, washed twice with pre-chilled PBS, and suspended in 1 × binding buffer at a concentration of 1 × 10^5 cells/mL. According to the manufacturer’s instruction, 100 μL of such medium was then mixed with 5 μL of Annexin V-FITC and 5 μL of propidium iodide (BD Biosciences, San Jose, CA, USA). The mixture was vortexed gently, then incubated in the dark at room temperature for 15 min. Apoptosis analysis was measured by flow cytometry (BD FACS Calibur).
smiles,measurement,value
O=C1C(=Cc2cccc(C(F)(F)F)c2)CN(S(=O)(=O)c2ccc(C(F)(F)F)cc2)CC1=Cc1cccc(C(F)(F)F)c1 [BAP 16],Apoptosis of HepG2 cells,31.7%
